Results published in patent US11214803B2, “Modulators of YAP1 expression” (Ionis Pharmaceuticals, Inc., priority 2019, dated 2022).
Strand notation (5' to 3'): a small letter for the sugar, then the base; units joined by * are phosphorothioate-linked, units joined directly phosphodiester-linked; [ ] holds rarer units or linkages, { } end groups; capitals alone tell only the bases. e = 2'-O-(2-methoxyethyl) (MOE); k = constrained ethyl (cEt); [5mC] = 5-methylcytosine; d = 2'-deoxy (DNA); m = 2'-O-methyl

Test system: Yap1 mRNA
Experiment: Antisense inhibition of human Yap1 in SNU-449 cells by modified oligonucleotides, single dose (Example 5, RTS36584)
Format: cell-based
Procedure, shortened: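 Plate SNU-449 cells at 10,000 per well; add 2,000 nM modified oligonucleotide without transfection reagent; after ~48 h isolate RNA, run qRT-PCR with RTS36584, normalise to RIBOGREEN and report % UTC.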

[1] = Table 50, Yap1 mRNA remaining as percent of untreated control (UT), SNU-449 cells, single dose
[2] = Table 42 (separate experiment), SNU-449 cells, 10,000 cells per well, free uptake, 2,000 nM modified oligonucleotide, approximately 48 hours, RTS36584, normalized to RIBOGREEN, Yap1 mRNA relative to untreated control cells
[3] = Table 40 (separate experiment), SNU-449 cells, 10,000 cells per well, free uptake, 2,000 nM oligonucleotide, approx. 48 hours, RTS36584, normalized to RIBOGREEN, Yap1 mRNA relative to untreated control
[4] = Table 43 experiment, SNU-449 cells, 10,000 cells per well, free uptake, 2,000 nM, approximately 48 hours, RTS36584, Yap1 mRNA normalized to RIBOGREEN, relative to untreated control cells
[5] = Table 45, Yap1 mRNA as percent of untreated control, SNU-449 cells, single dose
[6] = Table 39, SNU-449 cells, 10,000 cells per well, free uptake, 2,000 nM oligonucleotide, approx. 48 hours, RTS36584, normalized to RIBOGREEN, Yap1 mRNA relative to untreated control
[7] = Table 44 experiment, SNU-449 cells, 10,000 cells per well, free uptake, 2,000 nM, approximately 48 hours, RTS36584, Yap1 mRNA normalized to RIBOGREEN, relative to untreated control cells
[8] = Table 46, Yap1 mRNA as percent of untreated control, SNU-449 cells, single dose
[9] = Table 41, SNU-449 cells, 10,000 cells per well, free uptake, 2,000 nM modified oligonucleotide, approximately 48 hours, RTS36584, normalized to RIBOGREEN, Yap1 mRNA relative to untreated control cells
[10] = Table 49, Yap1 mRNA level relative to untreated control, modified oligonucleotides targeting SEQ ID NO.: 1 and 2
[11] = Table 52, Yap1 mRNA, modified oligonucleotides targeting SEQ ID NO: 1 and 2
[12] = Yap1 mRNA, percent of untreated control, modified oligonucleotides targeting SEQ ID NO: 1 and 2, Table 47

1095435 (antisense kA*k[5mC]*kT*dG*dA*dG*dG*dT*dA*dT*dA*dA*k[5mC]*kT*kG*eG) [Compound 1095435]
YAP1 (% UT) [1]: 39 % UT

1198227 (kA*kG*d[5mC]*dA*d[5mC]*dT*dT*dT*dT*dA*d[5mC]*eA*eT*eT*kA*kG; antisense) [Compound 1198227]
YAP1 (% UTC) [2]: 104 % UTC

1197291 (k[5mC]*kT*kT*dT*mU*dA*d[5mC]*dA*dT*dT*dA*dG*dG*kA*kA*k[5mC]; antisense) [Compound 1197291]
YAP1 (% UT) [1]: 83 % UT

1198802 (antisense kA*eG*kA*d[5mC]*dT*dA*dA*dG*dT*dA*dA*dG*eG*eT*kT*kT) [Compound 1198802]
YAP1 (% UTC) [3]: 83 % UTC

1198262 (kT*kG*dT*dA*dA*dT*dA*dT*dT*dG*d[5mC]*eA*eA*eT*k[5mC]*kT; antisense) [Compound 1198262]
YAP1 (% UTC) [4]: 114 % UTC

1198898 (kA*kT*dA*dT*dG*dG*dA*dA*dA*dT*dT*kG*dT*k[5mC]*dT*k[5mC]; antisense) [Compound 1198898]
YAP1 (% UTC) [5]: 53 % UTC

1198392 (kA*dA*d[5mC]*dA*d[5mC]*dT*dG*dA*dG*dG*dT*kA*eT*kA*eA*k[5mC]; antisense) [Compound 1198392]
YAP1 (% UTC) [6]: 48 % UTC

1198711 (kG*kA*d[5mC]*dT*dA*dA*dG*dT*dA*dA*dG*dG*kT*eT*kT*e[5mC]; antisense) [Compound 1198711]
YAP1 (% UTC) [2]: 60 % UTC

1198907 (kT*k[5mC]*dT*dA*dT*dA*dT*dT*dA*dG*dA*kG*dT*kA*dT*kG; antisense) [Compound 1198907]
YAP1 (% UTC) [7]: 74 % UTC

1198941 (kT*kT*dA*dT*dA*dT*dG*dG*dT*dT*dT*kT*dG*kT*dG*kT; antisense) [Compound 1198941]
YAP1 (% UTC) [5]: 35 % UTC

1198402 (kG*dG*dA*dA*dG*dA*dT*d[5mC]*dT*dG*dA*kA*eA*k[5mC]*eT*k[5mC]; antisense) [Compound 1198402]
YAP1 (% UTC) [6]: 32 % UTC

1197311 (kT*kT*kT*dA*mU*dG*dT*dA*dA*dT*dA*dT*dT*kG*k[5mC]*kA; antisense) [Compound 1197311]
YAP1 (% UT) (Table 51, Yap1 mRNA remaining as percent of untreated control (UT), SNU-449 cells, single dose): 27 % UT

1198842 (kG*kT*dG*d[5mC]*dT*dT*dT*dG*dG*dA*dA*kG*eA*kT*e[5mC]*kT; antisense) [Compound 1198842]
YAP1 (% UT) [8]: 37 % UT

1198644 (kT*kA*dT*dA*dT*dT*dA*dG*dA*dG*dT*dA*kT*eG*kT*eG; antisense) [Compound 1198644]
YAP1 (% UTC) [9]: 73 % UTC

1198677 (antisense kA*kT*dT*d[5mC]*dA*dG*dA*dT*dT*dT*dA*dG*kG*eA*kT*eG) [Compound 1198677]
YAP1 (% UTC) [9]: 87 % UTC

1198716 (kA*eA*kT*dT*dG*dT*d[5mC]*dT*d[5mC]*dA*dT*dG*e[5mC]*e[5mC]*kT*kT; antisense) [Compound 1198716]
YAP1 (% UTC) [3]: 27 % UTC

1198565 (antisense kT*kT*kA*d[5mC]*dA*dT*dT*dA*dG*dG*dA*dA*k[5mC]*kA*kA*eG) [Compound 1198565]
YAP1 (% UT) [10]: 53 % UT

1198547 (antisense kG*kG*kA*dA*dA*dT*dT*dG*dT*d[5mC]*dT*d[5mC]*kA*kT*kG*e[5mC]) [Compound 1198547]
YAP1 (% UT) [10]: 27 % UT

1198648 (kA*kG*dG*dT*dA*dT*dA*dA*d[5mC]*dT*dG*dG*kG*e[5mC]*kA*eA) [Compound 1198648]
YAP1 (% UTC) [2]: 43 % UTC

1198269 (kA*kA*dA*dG*dT*dG*dT*dA*dT*dG*dT*e[5mC]*eA*eG*kA*kA; antisense) [Compound 1198269]
YAP1 (% UTC) [4]: 58 % UTC

1200830 (kT*kT*kA*dG*dG*mA*dT*dG*d[5mC]*dA*dT*dG*dG*kT*kT*kT; antisense) [Compound 1200830]
YAP1 (% UT) [11]: 50 % UT

1198758 (kA*eT*kA*dG*dT*dG*d[5mC]*dT*dT*dT*dG*dG*eA*eA*kG*kA; antisense) [Compound 1198758]
YAP1 (% UTC) [3]: 47 % UTC

1198903 (kA*kT*dT*dA*dG*dA*dG*dT*dA*dT*dG*kT*dG*kG*d[5mC]*kA; antisense) [Compound 1198903]
YAP1 (% UTC) [7]: 24 % UTC

1198769 (kT*eT*kA*dT*dA*dT*dG*dG*dT*dT*dT*dT*eG*eT*kG*kT; antisense) [Compound 1198769]
YAP1 (% UTC) [9]: 77 % UTC

1197198 (antisense kA*kT*kT*d[5mC]*dA*dG*dA*dT*dT*dT*dA*dG*dG*kA*kT*kG) [Compound 1197198]
YAP1 (% UT) [12]: 139 % UT

1198530 (kT*kT*dT*dA*dA*dA*dG*dT*dG*dT*dA*eT*kG*eT*k[5mC]*eA; antisense) [Compound 1198530]
YAP1 (% UTC) [7]: 29 % UTC

1200868 (kT*kA*kA*dG*dT*mA*dA*dG*dG*dT*dT*dT*d[5mC]*k[5mC]*k[5mC]*kA; antisense) [Compound 1200868]
YAP1 (% UT) [11]: 36 % UT

1197212 (antisense kT*kT*kT*dA*dT*dG*dT*dA*dA*dT*dA*dT*dT*kG*k[5mC]*kA) [Compound 1197212]
YAP1 (% UT) [12]: 55 % UT

1097224 (antisense k[5mC]*kT*k[5mC]*dT*dT*dA*dT*dA*dT*dG*dG*dT*dT*kT*kT*kG) [Compound 1097224]
YAP1 (% UT) (Table 48, Yap1 mRNA level relative to untreated control, modified oligonucleotides targeting SEQ ID NO.: 1 and 2): 22 % UT

1200818 (kA*kA*kG*d[5mC]*dA*mC*dT*dT*dT*dT*dA*d[5mC]*dA*kT*kT*kA; antisense) [Compound 1200818]
YAP1 (% UT) [11]: 31 % UT

1198429 (kA*dT*dT*dG*d[5mC]*dA*dA*dT*d[5mC]*dT*dG*kT*e[5mC]*kT*eG*kA; antisense) [Compound 1198429]
YAP1 (% UTC) [6]: 48 % UTC

1198523 (kT*kT*dT*dA*dT*dG*dT*dA*dA*dT*dA*eT*kT*eG*k[5mC]*eA; antisense) [Compound 1198523]
YAP1 (% UTC) [7]: 93 % UTC

1198880 (kA*kA*d[5mC]*dT*dT*dT*dA*dA*dA*dG*dT*kG*eT*kA*eT*kG; antisense) [Compound 1198880]
YAP1 (% UT) [12]: 98 % UT

1198679 (antisense TTATATGGTTTTGTGT; cEt/MOE gapmer, phosphorothioate, chemistry not fully specified) [Compound 1198679]
YAP1 (% UTC) [2]: 54 % UTC

1198606 (antisense kT*kG*kT*dA*dA*dT*dA*dT*dT*dG*d[5mC]*dA*kA*kT*k[5mC]*eT) [Compound 1198606]
YAP1 (% UT) [1]: 25 % UT

1198951 (kA*kA*dT*dA*dT*dT*dG*d[5mC]*dA*dA*dT*k[5mC]*dT*kG*dT*k[5mC]; antisense) [Compound 1198951]
YAP1 (% UTC) [5]: 81 % UTC

1198782 (antisense kT*eG*kT*dA*dA*dT*dA*dT*dT*dG*d[5mC]*dA*eA*eT*k[5mC]*kT) [Compound 1198782]
YAP1 (% UTC) [3]: 61 % UTC

1198848 (kA*kT*dT*dT*dA*dG*dG*dA*dT*dG*d[5mC]*kA*eT*kG*eG*kT; antisense) [Compound 1198848]
YAP1 (% UT) [8]: 47 % UT

1197192 (antisense kA*kT*kA*dG*dT*dG*d[5mC]*dT*dT*dT*dG*dG*dA*kA*kG*kA) [Compound 1197192]
YAP1 (% UT) [12]: 39 % UT

1198514 (kG*kA*d[5mC]*dA*dA*d[5mC]*dT*d[5mC]*dT*dT*dA*eT*kA*eT*kG*eG; antisense) [Compound 1198514]
YAP1 (% UTC) [7]: 53 % UTC

1200860 (kT*kA*kA*dA*dG*mU*dG*dT*dA*dT*dG*dT*d[5mC]*kA*kG*kA; antisense) [Compound 1200860]
YAP1 (% UT) [11]: 16 % UT

1198204 (kT*kG*dG*dA*dA*dA*dT*dT*dG*dT*d[5mC]*eT*e[5mC]*eA*kT*kG; antisense) [Compound 1198204]
YAP1 (% UTC) [2]: 31 % UTC
